{"source": "patent US6451334B2", "about": "“Compositions and administration of compositions for the treatment of blood disorders” (priority 1997, dated 2002)", "key": {"K562 cells": {"test_system": "K562 cells", "assay": "Treatment of K562 cells and analysis of globin mRNA by primer extension", "assay_type": "cell-based, human", "conditions": "for Radioactivity Alpha Globin (α) mRNA / Radioactivity Fetal Globin (γ) mRNA / γ/α / stimulating γ globin compared to control cells (ranking in words): K562 cells; for Radioactivity Alpha Globin (α) mRNA / Radioactivity Fetal Globin (γ) mRNA: phosphorimager; for γ/α: ratio of globin mRNA radioactivity; for fold induction at 1000 µM: Homo sapiens, K562, 72 h, read-out: increase in γ-globin mRNA over constitutive levels in untreated control K562 cells", "method": "K562 cells kindly provided by Dr. George Atweh were cultured with 10% fetal bovine serum (Sigma, St. Louis, Mo.) and RPMI media (Grand Island Biological Company, Grand Island, N.Y.) in a humidified atmosphere with 5% CO2/95% air. Compounds were tested at a final concentration of 1 mM at neutral pH and included butyric acid, phenoxyacetic acid, dimethylbutric acid, alpha-methylhydrocionamic acid, 2,3, and 4-methoxyhydrocinnamic acid, dihydrocinnamic acid, methoxycinnamic acid, methoxyacetic acid, phenylpropionic acid, amino hydrocinnamic acid, DL β- and DL-βamino-n-butyric acid, cinnamic acid, and 2 methylhydrocinnamic acid (Aldrich Chemical Company, St. Louis, Mo.). Additional compounds studied included dimethylhydroxy acetic acid, dimethylpropionic acid, dimethylphenoxyacetic acid, and dimethylmethoxyacetic acid. After three days of culture with these agents, mRNA was purified and α, β, and γ globin mRNA was analyzed by primer extension using oligonucleotide primers and quantitation on a PhosphoImager as previously described."}, "thalassemic patients": {"test_system": "thalassemic patients", "assay": "Pulsed arginine butyrate infusion in thalassemic disorders", "assay_type": "in vivo", "conditions": "4 days with infusions about 8 hours per day, then 7 days of no treatment", "method": "Individual pulses can be delivered to the patient continuously over a period of several hours, such as about 2, 4, 6, 8, 10, 12, 14 or 16 hours, or several days, such as 2, 3, 4, 5, 6, or 7 days, preferably from about 1 hour to about 24 hours and more preferably from about 3 hours to about 9 hours. Alternatively, periodic doses can be administered in a single bolus or a small number of injections of the composition over a short period of time, typically less than 1 or 2 hours. […] Substantially means that there are positive consequences that raise the patient's standard of living such as, for example, increased activity or mobility, fewer side-effects, fewer hospital stays or visits to the physician, or fewer transfusions.\nCompositions administered in pulses have the surprising benefit of reducing the overall load of drug on the patient as the total amount of drug administered can be substantially less than that amount that has been therapeutically administered by conventional continuous therapy. […] Preferably, the therapeutically effective pulsed dose is less than the continuous dose, or less than one half, one third, one quarter, one fifth, one tenth or even one twentieth of the therapeutic continuous dose of the same composition or even less."}, "[1]": {"assay": "In vivo half-life of the composition", "method": "The interval between pulses or the interval of no delivery is greater than 24 hours and preferably greater than 48 hours, and can be for even longer such as for 3, 4, 5, 6, 7, 8, 9 or 10 days, two, three or four weeks or even longer. As the results achieved may be surprising, the interval between pulses, when necessary, can be determined by one of ordinary skill in the art. Often, the interval between pulses can be calculated by administering another dose of the composition when the composition or the active component of the composition is no longer detectable in the patient prior to delivery of the next pulse. Intervals can also be calculated from the in vivo half-life of the composition. Intervals may be calculated as greater than the in vivo half-life, or 2, 3, 4, 5 and even 10 times greater the composition half-life."}, "32D cells": {"test_system": "32D cells", "assay": "Proliferation studies using 32D cells at low IL-3", "assay_type": "cell-based, murine", "conditions": "32D cells, low IL-3 (0.5 U/ml), FIG. 7", "method": "32D cells were cultured in RPMI media with 10% fetal bovine serum (Sigma, St. Louis, Mo.), […] glutamine (GIBCO), and murine IL3 (20 U/ml) (Biosource International). Growth factor controls used included the standard concentration of IL-3 required for proliferation of these cells (25 U/ml) and a 50-fold lower concentration (0.5 U/ml), and erythropoietin (3 U/ml) or G-CSF ( U/ml), (Amgen, Thousand Oaks, Calif.). The test compounds were added at final concentrations of 1 mM. As a cell density of 2.5−10×10^5 is necessary for growth of this cell line, this density was maintained by passing the cells at three day intervals or by concentrating the cells when apoptosis occurred. Proportions of cells which were viable or apoptotic, and the fraction of cells in each part of the cell cycle was assessed by incubating the cells with Trypan blue and enumeration, and with propidium iodide incubation and FACScan analysis as previously described.\nThe effects of the representative compounds which have been synthesized or selected for resistance to beta oxidative metabolism and glucuronidation in stimulating γ globin gene expression in a human erythroid-like cell line and for their effects on cell growth utilizing a multi-lineage murine hematopoietic cell line, 32D. This cell line is dependent on high concentrations of IL-3 for growth. […]"}, "[2]": {"test_system": "mice transgenic for a human beta globin locus YAC containing a silenced gamma globin gene", "assay": "In vivo experiments in mice transgenic for the human beta globin gene locus", "method": "Three prototype compounds, methylhydrocinnamic acid (MHCA), phenoxyacetic acid (PAA), and dimethylbutyric acid PMB), were administered at doses from 100 to 250 mg/kg in two daily doses by intraperitoneal injection to mice transgenic for a human beta globin locus YAC containing a silenced gamma globin gene. Reticulocytes, newly synthesized red blood cells, were counted daily and non-alpha globin in MRNA was analyzed by Rnase protection. Only 50 microliters of blood were removed daily for testing. A 5 to 10-fold increase in reticulocytes and a 1.7-2.4 fold increase in gamma globin mRNA was observed within one week of therapy with the three protype compounds. In contrast, control mice to which normal saline was administered, with the same degree of phlebotomy for testing, had no significant changes in reticulocytes or globin in mRNA."}, "anemic baboon": {"test_system": "anemic baboon", "assay": "Hematopoietic stimulation in an anemic phlebotomized baboon", "assay_type": "in vivo", "conditions": "administered for five days, baboon phlebotomized 5% of blood volume daily, FIG. 13", "method": "An increase in multiple blood cell lineages resulted when a prototype hemokine compound (α methylhydrocinnamic acid) was administered for five days to an anemic baboon, which was being phlebotomized 5% of its blood volume daily."}, "[3]": {"test_system": "Mononuclear cells from patients with sickle cell disease or thalassemia trait", "assay": "Erythroid colony (BFU-E) cultures in methylcellulose", "assay_type": "cell-based, human", "conditions": "0.2-0.5 mM, optimal growth factors", "method": "Mononuclear cells from patients with sickle cell disease or thalassemia trait were isolated on Ficoll Hypague, washed, and cultured in methylcellulose media with optimal concentrations of hematopoietic growth factors IL-3, GM-CSF, Stem Cell Factor, IL6, 3 U/ml Eiythropoietin, insulin, bovine serum albumin, and 0.2-0.5 mM concentrations of test compounds of derivatives of cinnamic acid and hydrocinnamic acid. […] The following illustrates some representative cultures: […]"}, "[4]": {"test_system": "system A transport of amino acids", "assay": "System A transport of amino acids", "assay_type": "cell-based", "description": "Normal cell viability, the viability of an untransformed or uninfected cell, can be determined from analyzing the effects of the composition on one or more biological processes of the cell. Detrimental interference with one or more of these cellular processes becomes significant when the process becomes abnormal. Examples of quantitatable and qualifiable biological processes include the processes of cell division, protein synthesis, nucleic acid (DNA or RNA) synthesis, nucleic acid (principally DNA) fragmentation and apoptosis. Others processes include specific enzyme activities, the activities of the cellular transportation systems such as the transportation of amino acids by system A (neutral), system B (acidic) or system C (basic), and the expression of a cell surface protein. […] Abnormal cell division, for example, can be mitosis which occurs too rapidly, as in a malignancy, or unstably, resulting in programmed cell death or apoptosis, detected by increased DNA degradation. The determination of abnormal cell viability can be made on comparison with untreated control cells. Compositions preferably increase normal cell viability. Increased cell viability can be determined by those of ordinary skill in the art using, for example, DNA fragmentation analysis. […]"}, "in vivo": {"assay": "in vivo", "conditions": "monkey, po", "protocol": "(§1) Chronic indwelling venous and arterial catheters which were maintained using sterile technique for blood sampling. Compounds were administered by nasogastric tube and blood was collected to determine drug plasma levels at regular intervals following single oral doses. […] The test compounds were analyzed after ether extraction of the plasma, separation by HPLC, and quantitated by comparison to a spilled internal standard of heptanoic acid according to previously described methods."}, "[5]": {"assay": "Pharmacokinetics after single oral doses in human volunteers", "assay_type": "in vivo", "conditions": "FIG. 4, in humans, oral doses of 40-500 mg/kg", "protocol": "as §1"}, "[6]": {"assay": "Pharmacokinetic studies after single oral doses in baboons", "conditions": "monkey, plasma", "protocol": "as §1"}, "bone marrow cells": {"test_system": "bone marrow cells", "conditions": "continuous intravenous administration; cited from earlier work"}, "[7]": {"conditions": "100 to 250 mg/kg in two daily doses, intraperitoneal, listed as DMB"}}, "note": "“And” between values parts separate entries of the source, which are not always exact repeats. Identical values can stand only once. Like-named read-outs stand apart in the source and are kept apart here.", "data": [{"compound": "arginine butyrate [reference compound]", "values": [{"measurement": "Radioactivity Alpha Globin (α) mRNA", "setting": "K562 cells; 1 mM", "value": 296132}, {"measurement": "Radioactivity Fetal Globin (γ) mRNA", "setting": "K562 cells; 1 mM", "value": 2176523}, {"measurement": "γ/α", "setting": "K562 cells; 1 mM", "value": 7.3}, {"measurement": "Fetal hemoglobin levels", "setting": "thalassemic patients", "value": "rise substantially"}, {"measurement": "half-life", "setting": "[1]", "value": 15, "unit": "min"}]}, {"compound": "CC(Cc1ccccc1)C(=O)O", "note": "(stereo not drawn) [ST 7, α-methylhydrocinnamic acid]", "values": [{"measurement": "fold induction at 1000 µM", "setting": "K562 cells", "value": "2.4 to 26"}, {"measurement": "stimulating γ globin compared to control cells (ranking in words)", "setting": "K562 cells; 1 mM", "value": "most active"}, {"measurement": "Radioactivity Alpha Globin (α) mRNA", "setting": "K562 cells; 1 mM", "value": 92979}, {"measurement": "Radioactivity Fetal Globin (γ) mRNA", "setting": "K562 cells; 1 mM", "value": 1648056}, {"measurement": "γ/α", "setting": "K562 cells; 1 mM", "value": 17.7}, {"measurement": "increase in proliferation over 4 days", "setting": "32D cells", "value": 5, "unit": "fold"}, {"measurement": "Reticulocytes Peak", "setting": "[2]; 100 to 250 mg/kg in two daily doses, intraperitoneal, listed as MHCA", "value": "17.9 and 23.3"}, {"measurement": "Reticulocytes Day 0", "setting": "[2]; baseline of the treated animal, listed as MHCA", "value": "2.9 and 2.3"}, {"measurement": "blood cell lineages", "setting": "anemic baboon", "value": "increase in both white blood cells and total hemoglobin"}, {"measurement": "Mean BFU-E/culture 4 cultures averaged (per 0.2 million cells)", "setting": "[3]", "value": 223}, {"measurement": "% Increase over control", "setting": "[3]; BFU-E", "value": 32.4, "unit": "%"}, {"measurement": "system A transport of amino acids", "setting": "[4]", "value": "do not significantly alter"}, {"measurement": "half-life", "setting": "in vivo", "value": 456, "unit": "min"}]}, {"compound": "CCC(C)(C)C(=O)O", "note": "[ST 20, 2,2 dimethylbutyric acid]", "values": [{"measurement": "fold induction at 1000 µM", "setting": "K562 cells; primer extension, 1 mM, three days of culture, FIG. 1", "value": "2.4 to 26"}, {"measurement": "stimulating γ globin compared to control cells (ranking in words)", "setting": "K562 cells; 1 mM", "value": "most active"}, {"measurement": "Radioactivity Alpha Globin (α) mRNA", "setting": "K562 cells; 1 mM", "value": 178751}, {"measurement": "Radioactivity Fetal Globin (γ) mRNA", "setting": "K562 cells; 1 mM", "value": 1697936}, {"measurement": "γ/α", "setting": "K562 cells; 1 mM", "value": 9.5}, {"measurement": "time for which plasma levels persisted in the millimolar range", "setting": "[5]", "value": "greater than 6 hours"}, {"measurement": "Reticulocytes Peak", "setting": "[2]; [7]", "value": "17.7 and 21.3"}, {"measurement": "γ/γ + β mRNA Peak", "setting": "[2]; [7]", "value": "0.36 and 0.31"}, {"measurement": "γ/γ + β mRNA Day 0", "setting": "[2]; baseline of the treated animal, RNase protection, listed as DMB", "value": "0.20 and 0.17"}, {"measurement": "Reticulocytes Day 0", "setting": "[2]; baseline of the treated animal, listed as DMB", "value": "2.4 and 4.2"}, {"measurement": "half-life", "setting": "[6]", "value": 408, "unit": "min"}]}, {"compound": "Nc1ncn([C@@H]2O[C@H](CO)[C@@H](O)[C@H]2O)c(=O)n1", "note": "[AZA, 5-azacytidine]", "values": [{"measurement": "increase in γ globin mRNA of bone marrow cells", "setting": "bone marrow cells", "value": "five- to seven"}]}]}
